{"source": "PubChem BioAssay AID1745844", "about": "(Carcinogenic Potency Database (CPDB), 2022)", "test_system": "rodent lifetime carcinogenesis bioassay, tumor incidence TD50", "assay": "carcinogenic potency in animals, long-term in vivo studies, CPDB compilation (AID 1745844)", "note": "Where “and” joins values, the source holds several entries; their conditions need not be identical. Equal values may be shown once. Calls of active or inactive are those of the source. No rule for the calls is given here.", "data": [{"molecule": "Cc1cc(O)c2c(c1)C(=O)c1cc(O)cc(O)c1C2=O", "values": [{"measurement": "TD50", "setting": "mouse, strain B6C3F1, females, in feed, site: any site (literature study), lesion: several types, types named in the paper, dosed 104 weeks, study length 104 weeks", "value": "548 mg/kg/day (inactive)"}, {"measurement": "TD50", "setting": "mouse, strain B6C3F1, females, in feed, site: lung, lesion: alveolar/bronchiolar adenoma + alveolar/bronchiolar carcinoma, dosed 104 weeks, study length 104 weeks", "value": 65800, "unit": "mg/kg/day"}, {"measurement": "TD50", "setting": "mouse, strain B6C3F1, males, in feed, site: kidney, lesion: tubule adenoma + tubule carcinoma, dosed 104 weeks, study length 104 weeks", "value": "965 mg/kg/day and 885 mg/kg/day"}, {"measurement": "TD50", "setting": "rat, strain Fischer 344, females, in feed, site: Zymbal's gland, lesion: carcinoma, dosed 104 weeks, study length 104 weeks", "value": 1970, "unit": "mg/kg/day"}, {"measurement": "TD50", "setting": "rat, strain Fischer 344, females, in feed, site: any site (literature study), lesion: several types, types named in the paper, dosed 104 weeks, study length 104 weeks", "value": 797, "unit": "mg/kg/day"}, {"measurement": "TD50", "setting": "rat, strain Fischer 344, females, in feed, site: liver, lesion: hepatocellular adenoma + hepatoblastoma + hepatocellular carcinoma, dosed 104 weeks, study length 104 weeks", "value": 4300, "unit": "mg/kg/day"}, {"measurement": "carcinogen call", "setting": "rat, strain Fischer 344, males, in feed, site: any site (literature study), lesion: several types, types named in the paper, dosed 104 weeks, study length 104 weeks", "value": "negative (inactive)"}]}, {"molecule": "S=[Se]", "values": [{"measurement": "TD50", "setting": "mouse, strain B6C3F1, females, by gavage, site: any site (literature study), lesion: several types, types named in the paper, dosed 103 weeks, study length 104 weeks", "value": 69.7, "unit": "mg/kg/day"}, {"measurement": "TD50", "setting": "mouse, strain B6C3F1, females, by gavage, site: liver + lung, lesion: hepatocellular adenoma + hepatocellular carcinoma + alveolar/bronchiolar adenoma + alveolar/bronchiolar carcinoma, dosed 103 weeks, study length 104 weeks", "value": 46.8, "unit": "mg/kg/day"}, {"measurement": "TD50", "setting": "mouse, strain B6C3F1, females, by gavage, site: liver, lesion: hepatocellular adenoma + hepatocellular carcinoma + neoplastic nodule, dosed 103 weeks, study length 104 weeks", "value": 69.3, "unit": "mg/kg/day"}, {"measurement": "TD50", "setting": "mouse, strain B6C3F1, females, by gavage, site: liver, lesion: hepatocellular adenoma + hepatocellular carcinoma, dosed 103 weeks, study length 104 weeks", "value": 69.3, "unit": "mg/kg/day"}, {"measurement": "TD50", "setting": "mouse, strain B6C3F1, females, by gavage, site: liver, lesion: hepatocellular carcinoma, dosed 103 weeks, study length 104 weeks", "value": 85.2, "unit": "mg/kg/day"}, {"measurement": "TD50", "setting": "mouse, strain B6C3F1, females, by gavage, site: lung, lesion: alveolar/bronchiolar adenoma + alveolar/bronchiolar carcinoma, dosed 103 weeks, study length 104 weeks", "value": 137, "unit": "mg/kg/day"}, {"measurement": "TD50", "setting": "mouse, strain B6C3F1, females, by gavage, site: lung, lesion: alveolar/bronchiolar carcinoma, dosed 103 weeks, study length 104 weeks", "value": 433, "unit": "mg/kg/day"}, {"measurement": "TD50", "setting": "mouse, strain B6C3F1, males, by gavage, site: any site (literature study), lesion: several types, types named in the paper, dosed 103 weeks, study length 104 weeks", "value": "735 mg/kg/day (inactive)"}, {"measurement": "TD50", "setting": "mouse, strain B6C3F1, males, by gavage, site: liver, lesion: hepatocellular adenoma + hepatocellular carcinoma + neoplastic nodule, dosed 103 weeks, study length 104 weeks", "value": 202, "unit": "mg/kg/day"}, {"measurement": "TD50", "setting": "mouse, strain B6C3F1, males, by gavage, site: lung, lesion: alveolar/bronchiolar adenoma + alveolar/bronchiolar carcinoma, dosed 103 weeks, study length 104 weeks", "value": 183, "unit": "mg/kg/day"}, {"measurement": "TD50", "setting": "rat, strain Fischer 344, females, by gavage, site: any site (literature study), lesion: several types, types named in the paper, dosed 103 weeks, study length 104 weeks", "value": 19.3, "unit": "mg/kg/day"}, {"measurement": "TD50", "setting": "rat, strain Fischer 344, females, by gavage, site: liver, lesion: hepatocellular adenoma + hepatocellular carcinoma + neoplastic nodule, dosed 103 weeks, study length 104 weeks", "value": 6.14, "unit": "mg/kg/day"}, {"measurement": "TD50", "setting": "rat, strain Fischer 344, females, by gavage, site: liver, lesion: hepatocellular carcinoma + neoplastic nodule, dosed 103 weeks, study length 104 weeks", "value": 6.14, "unit": "mg/kg/day"}, {"measurement": "TD50", "setting": "rat, strain Fischer 344, females, by gavage, site: liver, lesion: hepatocellular carcinoma, dosed 103 weeks, study length 104 weeks", "value": 13.2, "unit": "mg/kg/day"}, {"measurement": "TD50", "setting": "rat, strain Fischer 344, males, by gavage, site: any site (literature study), lesion: several types, types named in the paper, dosed 103 weeks, study length 104 weeks", "value": 25, "unit": "mg/kg/day"}, {"measurement": "TD50", "setting": "rat, strain Fischer 344, males, by gavage, site: liver, lesion: hepatocellular adenoma + hepatocellular carcinoma + neoplastic nodule, dosed 103 weeks, study length 104 weeks", "value": 11.5, "unit": "mg/kg/day"}, {"measurement": "TD50", "setting": "rat, strain Fischer 344, males, by gavage, site: liver, lesion: hepatocellular carcinoma + neoplastic nodule, dosed 103 weeks, study length 104 weeks", "value": 11.5, "unit": "mg/kg/day"}, {"measurement": "TD50", "setting": "rat, strain Fischer 344, males, by gavage, site: liver, lesion: hepatocellular carcinoma, dosed 103 weeks, study length 104 weeks", "value": 21, "unit": "mg/kg/day"}]}, {"molecule": "CCOC(=O)CC(SP(=O)(OC)OC)C(=O)OCC", "note": "(stereo not given)", "values": [{"measurement": "carcinogen call", "setting": "mouse, strain B6C3F1, females, in feed, site: any site (literature study), lesion: several types, types named in the paper, dosed 103 weeks, study length 103 weeks", "value": "negative (inactive)"}, {"measurement": "TD50", "setting": "mouse, strain B6C3F1, females, in feed, site: lung, lesion: alveolar/bronchiolar adenoma + alveolar/bronchiolar carcinoma, dosed 103 weeks, study length 103 weeks", "value": 2760, "unit": "mg/kg/day"}, {"measurement": "TD50", "setting": "mouse, strain B6C3F1, males, in feed, site: any site (literature study), lesion: several types, types named in the paper, dosed 103 weeks, study length 103 weeks", "value": "472 mg/kg/day (inactive)"}, {"measurement": "TD50", "setting": "mouse, strain B6C3F1, males, in feed, site: liver, lesion: hepatocellular adenoma + hepatocellular carcinoma + neoplastic nodule, dosed 103 weeks, study length 103 weeks", "value": 579, "unit": "mg/kg/day"}, {"measurement": "TD50", "setting": "mouse, strain B6C3F1, males, in feed, site: lung, lesion: alveolar/bronchiolar adenoma + alveolar/bronchiolar carcinoma, dosed 103 weeks, study length 103 weeks", "value": 3230, "unit": "mg/kg/day"}, {"measurement": "TD50", "setting": "rat, strain Fischer 344, females, in feed, site: thyroid gland, lesion: c-cell adenoma + c-cell carcinoma, dosed 103 weeks, study length 104 weeks", "value": "296 mg/kg/day (inactive)"}, {"measurement": "carcinogen call", "setting": "rat, strain Fischer 344, males, in feed, site: any site (literature study), lesion: several types, types named in the paper, dosed 103 weeks, study length 104 weeks", "value": "negative (inactive)"}, {"measurement": "TD50", "setting": "rat, strain Fischer 344, males, in feed, site: liver, lesion: hepatocellular adenoma + hepatocellular carcinoma + neoplastic nodule, dosed 103 weeks, study length 104 weeks", "value": 1560, "unit": "mg/kg/day"}]}, {"molecule": "CN(C)c1ccc(N=NS(=O)(=O)O)cc1", "values": [{"measurement": "TD50", "setting": "mouse, strain B6C3F1, females, in feed, site: any site (literature study), lesion: several types, types named in the paper, dosed 78 weeks, study length 95 weeks", "value": 259, "unit": "mg/kg/day"}, {"measurement": "TD50", "setting": "mouse, strain B6C3F1, females, in feed, site: liver, lesion: hepatocellular adenoma + hepatocellular carcinoma + neoplastic nodule, dosed 78 weeks, study length 95 weeks", "value": 152, "unit": "mg/kg/day"}, {"measurement": "TD50", "setting": "mouse, strain B6C3F1, females, in feed, site: liver, lesion: hepatocellular adenoma + hepatocellular carcinoma, dosed 78 weeks, study length 95 weeks", "value": "152 mg/kg/day (inactive)"}, {"measurement": "TD50", "setting": "mouse, strain B6C3F1, females, in feed, site: lung, lesion: alveolar/bronchiolar adenoma + alveolar/bronchiolar carcinoma, dosed 78 weeks, study length 95 weeks", "value": 1750, "unit": "mg/kg/day"}, {"measurement": "carcinogen call", "setting": "mouse, strain B6C3F1, males, in feed, site: any site (literature study), lesion: several types, types named in the paper, dosed 78 weeks, study length 94 weeks", "value": "negative (inactive)"}, {"measurement": "carcinogen call", "setting": "rat, strain Fischer 344, females, in feed, site: any site (literature study), lesion: several types, types named in the paper, dosed 78 weeks, study length 105 weeks", "value": "negative (inactive)"}, {"measurement": "carcinogen call", "setting": "rat, strain Fischer 344, males, in feed, site: any site (literature study), lesion: several types, types named in the paper, dosed 78 weeks, study length 105 weeks", "value": "negative (inactive)"}]}]}
